In patent publication US8629174B2, “Unifying mechanism and methods to prevent cancer and neurodegenerative diseases” (Prevention L.L.C., priority 2002, dated 2014):

Columns and labels:
DNA = experiment: Reaction of E2-3,4-Q or enzymatically-activated 4-OHE2 with DNA in vitro; format: biochemical; conditions: enzymatically activated (peroxidases, tyrosinase, microsomes), all cases
Procedure: To determine whether DNA adducts are formed in biological systems, E2-3,4-Q or enzymatically-activated 4-hydroxyestradiol (4-OHE2) was reacted with DNA for 2 h at 37° C. The stable adducts were quantified by the ^32P-postlabeling method, and the depurinating adducts were analyzed by high pressure liquid chromatography (HPLC) interfaced with an electrochemical detector. When E2-3,4-Q reacted with DNA, almost the same amount of the depurinating adducts 4-OHE2-1-N3Ade and 4-OHE2-1-N7Gua were obtained, and the amount of stable adducts was 0.02% of the depurinating ones. Activation of 4-OHE2 by horseradish peroxidase gave similar results, whereas the mammalian lactoperoxidase produced a similar amount of N3Ade adduct, but about 50% more N7Gua adduct. The same two depurinating adducts were obtained in equal but smaller amounts when 4-OHE2 was activated with tyrosinase or phenobarbital-induced rat liver microsomes. In all cases, the level of stable adducts was 0.02% or less compared to the depurinating adducts (Li K. M., et al., Proc. Am. Assoc. Cancer Res., 39, 636 (1998); Cavalieri, et al., unpublished results).

[1] = test system: H-ras gene codon 61 (CAA to CTA); experiment: PCR-RFLP detection of H-ras codon 61 mutations in treated mouse skin; format: in vivo
Source text: In this technique, a segment of the H-ras gene is PCR-amplified and the product is restricted with XbaI to examine the induction of a RFLP from the codon 61 mutation. It was observed that at one day, 0.1% of the H-ras genes in the treated area of skin contained the codon 61 mutation, and then the population of these mutations increased to a maximum of 5% between 3 and 4 days after DB[a,l]P treatment. Subsequently, the level of mutations was reduced to background levels (0.0001%). The early time of induction of the codon 61 mutations (one day after DB[a,l]P treatment) coincides with suppression of DNA synthesis and induction of excision repair. Therefore, perhaps DB[a,l]P-induced DNA damage is converted into mutations by error-prone excision repair in pre-S-phase cells. (Chakravarti D., et al., Oncogene, 16, 3203-3210 (1998); Slaga T. J., et al., Cancer Res., 34a, 771-777 (1974); Sawyer T. W., et al., Carcinogenesis, 9, 1197-1202 (1988); Gill R. D., et al., Environ. Mol. Mutagen., 18, 200-206 (1991).)

mouse skin DNA = experiment: DNA adducts formed in mouse skin by PAH; format: in vivo
H-ras gene = experiment: H-ras mutation spectra in treated mouse skin (PCR, cloning, sequencing, with or without TDG treatment); format: in vivo; conditions: for A/T to G/C mutations, percent of total mutations / A/T to G/C mutations/total mutations: skin DNA
Procedure: Evidence in support of this was obtained from a comparative study of mutations in the mouse skin H-ras gene induced by 200 nmol of DB[a,l]P or 200 nmol of anti-DB[a,l]P-11,12-dihydrodiol-13,14-epoxide (anti-DB[a,l]PDE). Unlike DB[a,l]P, anti-DB[a,l]PDE forms 97% stable adducts and 3% depurinating adducts in DNA. In these experiments, the types of mutations that are induced in the early preneoplastic times was identified (12 h to 9 days after treatment) and then analyzed whether these mutations were induced as a result of error-prone repair (FIG. 4). The mutations were identified by PCR amplifying a segment of the H-ras gene from DNA extracted from mouse skin treated with one of the carcinogens, cloning the PCR products in a plasmid, isolating individual subclones and sequencing the H-ras inserts to identify mutations. (Chakravarti D., et al., Mutation Res., 456, 17-32 (2000); Cavalieri E. L. and Rogan E. G., Mechanisms of tumor initiation by polycyclic aromatic hydrocarbons in mammals. In: The Handbook of Environmental Chemistry: PAHs and Related Compounds, 3J, 81-117, Neilson A. H. (ed.), Springer, Heidelberg, Germany (1998).)
In this technique, G.T heteroduplexes in skin DNA are converted to G.apyrimidinic sites by treatment with T.G-DNA glycosylase (TDG) (FIG. 5). (Chakravarti D., et al., Mutation Res., 456, 17-32 (2000).)
Since abasic site-containing DNA molecules are refractory to PCR amplification, the conversion of G.T heteroduplexes into G. apyrimidinic sites makes H-ras molecules containing these heteroduplexes unamplifiable. […] As a result, PCR amplification of the H-ras gene from TDG-treated skin DNA, followed by cloning the PCR product and isolating and determining the sequence of individual subclones, causes a specific, drastic reduction of A to G mutations in the mutation spectra. In addition, the preferential PCR amplification artificially enriches low-abundance mutations that are observed only in TDG-treated spectra.
Following the entry of skin cells into S-phase, however, the G.T heteroduplexes are converted into G.C and A.T base pairs by one round of replication. […] Thus, the specific reduction of A to G mutations in the mutation spectra by the TDG-PCR procedure characterizes these mutations as G.T heteroduplexes. […] Therefore, A to G mutations remained as G.T heteroduplexes until one day after DB[a,l]P treatment of the skin; beyond which they were present as G.C and A.T mutations, presumably by replication. Flow cytometric analysis of epidermal keratinocytes isolated from DB[a,l]P-treated mouse skin confirms that cells begin to enter the S-phase one day after the treatment. (Chakravarti D., et al., Mutation Res., 456, 17-32 (2000); Chakravarti et al., unpublished results).
Treatment of mouse skin with 200 nmol of E2-3,4-Q induced primarily A/T to G/C mutations in the H-ras gene (FIG. 7). For example, 6 h after E2-3,4-Q treatment, 7 mutations were identified among 29 H-ras inserts. Five of the seven were A/T to G/C mutations. At 12 h, four out of the six mutations found in 30 H-ras inserts were A/T to G/C mutations. […] The observation that E2-3,4-Q induces mutations at 6 h is, therefore, a basis to propose that these mutations are induced by error-prone repair. To confirm this, TDG-PCR analysis of these mutations was conducted (FIG. 7). […] At 12 h, the change was from 4 in 30 H-ras inserts to 0 in 41 plasmids. […] The TDG-treated 1 day spectrum was dominated by two clonal mutations of equal frequency (codon 16 AAG to AGG and intronic C to T mutations). Because it is unlikely that the intronic mutation would affect Ras activity and the two clonal mutations were found in the same frequency, these mutations may be allelic, belonging to a clonally proliferating population. […] (Chakravarti D., et al., Oncogene, 20, 7945-7953 (2001).)

Harvey (H)-ras oncogene = experiment: H-ras mutations in mouse skin papillomas initiated by PAH; format: in vivo; conditions: codon 61, skin papillomas
cloned H-ras gene (pWT) = experiment: Mutations after PCR of pWT plasmid treated in vitro, with or without TDG; conditions: pWT DNA
Source text: FIGS. 4A-D depict H-ras mutations induced by DB[a,l]P or its metabolite, anti-DB[a/l]PDE. Wild type sequences and nucleotide numbers (GenBank accession No. U89950) are indicated below and mutations are indicated above the line. (A) PCR artifact mutations induced in untreated skin DNA and in a cloned H-ras gene (pWT) treated with anti-DB[a,l]PDE or with acid. Under the treatment conditions, anti-DB[a,l]PDE induces 1 adduct per 1000 bases and acid induces 1 depurination per 170 bases (Chakravarti, D. Et al., Mutat. Res., 456, 17-32 (2000)). (B) H-ras mutations in mouse skin DNA after treatment with 200 nmol DB[a,l]P in 100 μL acetone. At 12 h-1 d, the spectra contained mostly A/T to G/C mutations. At days 2 and 3, multiple codon 61 mutations were observed. At 4 d, no clear pattern of mutations could be determined. At days 5 and 6, multiple codon 52 (CTA to CCA) mutations were observed. […] (C) H-ras mutations in mouse skin DNA after treatment with 200 nmol of anti-DB[a,l]PDE in 100 μL acetone. Fifty to sixty percent of mutations between days 1 to 4 were A/T to G/C mutations. (D) H-ras mutations after TDG treatment of DNA from anti-DB[a,l]PDE-treated pWT and from DB[a,l]P- or anti-DB[a,l]PDE-treated mouse skin. […] These mutations were also observed at days 2 and 3. In addition, at days 2 and 3, multiple codon 13 (GGC to GTC) mutations were observed.
On the other hand, anti-DB[a,l]PDE formed approximately 50% A/T to G/C mutations, which correlated with 48.5% formation of anti-DB[a,l]PDE-Ade stable adducts in mouse skin DNA (Table 2). […] Studies conducted in other laboratories also indicate that nucleotide excision repair of bulky stable adducts is error-free. When the pWT plasmid was treated with anti-DB[a,l]PDE in vitro (97% bulky stable adducts) and subjected to PCR amplification, A/T to G/C mutations was also found to constitute 50% of all mutations (5 out of 10) (FIG. 4A). These mutations are induced by translesional synthesis over bulky stable adducts by the PCR polymerases. If, as has been proposed by others, only a small population of PAH-induced bulky stable adducts is removed by pre-replication repair, a large fraction of anti-DB[a,l]PDE-induced adducts would persist in the mouse skin DNA. It is, therefore, possible that the mutations found in anti-DB[a,l]PDE-treated mouse skin DNA are adduct-induced PCR artifacts. The similarity of the frequencies of A/T to G/C mutations in vitro and in skin is consistent with this idea.

C[C@]12CC[C@@H]3c4ccc(O)c(O)c4CC[C@H]3[C@@H]1CC[C@@H]2O [4-OHE2, 4-hydroxyestradiol]
level of stable adducts compared to the depurinating adducts (DNA): ≤ 0.02%

c1ccc2c(c1)cc1ccc3cccc4c5ccccc5c2c1c34 [DB[a,l]P, dibenzo[a,l]pyrene]
H-ras genes in treated skin containing the codon 61 mutation ([1]; 200 nmol, at one day): 0.1% | H-ras genes containing the codon 61 mutation, maximum ([1]; 200 nmol, between 3 and 4 days after treatment): 5% | level of codon 61 mutations, subsequently reduced to background levels ([1]; after days 3-4): 0.0001% | depurinations through depurinating adducts versus spontaneous base loss (mouse skin DNA; spontaneous: 10,000-20,000 depurinations/cell/day): approximately 120 fold | A/T to G/C mutations, percent of total mutations (H-ras gene; day 1, +TDG): 20% | A/T to G/C mutations/total mutations (H-ras gene; day 1, +TDG): 2/10 | A/T to G/C mutations, percent of total mutations (H-ras gene; day 1, −TDG): 90% | A/T to G/C mutations/total mutations (H-ras gene; day 1, −TDG): 10/11 | A/T to G/C mutations, percent of total mutations (H-ras gene; day 2, +TDG): 27% | A/T to G/C mutations/total mutations (H-ras gene; day 2, +TDG): 6/22 | A/T to G/C mutations, percent of total mutations (H-ras gene; day 2, −TDG): 31% | A/T to G/C mutations/total mutations (H-ras gene; day 2, −TDG): 11/35 | A/T to G/C mutations, percent of total mutations (H-ras gene; day 3, +TDG): 32% | A/T to G/C mutations/total mutations (H-ras gene; day 3, +TDG): 8/25 | A/T to G/C mutations, percent of total mutations (H-ras gene; day 3, −TDG): 31% | A/T to G/C mutations/total mutations (H-ras gene; day 3, −TDG): 7/22 | H-ras Mutations, No. of mutations/No. of mice, CAA→CTA (Harvey (H)-ras oncogene): 10/12 CAA→CTA

Cc1c2ccccc2c(C)c2c1ccc1ccccc12 [DMBA, 7,12-dimethylbenz[a]anthracene]
H-ras Mutations, No. of mutations/No. of mice, CAA→CTA (Harvey (H)-ras oncogene): 4/4 CAA→CTA

OC1c2cc3ccc4cccc5c6ccccc6c(c2C2OC2C1O)c3c45 (stereo not drawn) [anti-DB[a,l]PDE, anti-dibenzo[a,l]pyrene-11,12-dihydrodiol-13,14-epoxide]
depurinating adducts formed, share of adducts (mouse skin DNA; DNA): 3% | stable adducts formed, share of adducts (mouse skin DNA; DNA): 97% | Ade stable adducts formed (mouse skin DNA; mouse skin DNA): 48.5% | A/T to G/C mutations, percent of total mutations (cloned H-ras gene (pWT); +TDG): 60% | A/T to G/C mutations/total mutations (cloned H-ras gene (pWT); +TDG): 3/5 | A/T to G/C mutations, percent of total mutations (cloned H-ras gene (pWT); −TDG): 50% | A/T to G/C mutations/total mutations (cloned H-ras gene (pWT); −TDG): 5/10 | A/T to G/C mutations formed, share of mutations (H-ras gene; mouse skin): approximately 50% | A/T to G/C mutations, percent of total mutations (H-ras gene; day 1, +TDG): 80% | A/T to G/C mutations/total mutations (H-ras gene; day 1, +TDG): 4/5 | A/T to G/C mutations, percent of total mutations (H-ras gene; day 1, −TDG): 62.5% | A/T to G/C mutations/total mutations (H-ras gene; day 1, −TDG): 5/8
